From patent US10696639B2, “Heterocyclic compounds as HIV protease inhibitors” (Merck Sharp & Dohme Corp., priority 2016, dated 2020)

target: T1, wild-type HIV-1 protease (Human immunodeficiency virus type 1 group M subtype B, UniProt P04585); assay: Assay for Inhibition of Microbial Expressed HIV Protease; type: biochemical; settings: E. coli expressed wild-type HIV-1 protease, peptide substrate cleavage, LC-MS readout; mean of at least two independent experiments; read-out: HIV Pr Enzyme HIV1 PR IC50
T1 construct: Escherichia coli expressed wild-type HIV-1 protease protein; made in house; host or cells: Escherichia coli
Experimental: Assay for Inhibition of Microbial Expressed HIV Protease
Inhibition of Escherichia coli expressed wild-type HIV-1 protease protein was carried out with a peptide substrate [Val-Ser-Gln-Asn-(βnaphtyl)Ala-Pro-Ile-Val]. The inhibitor compound was preincubated with HIV-1 protease enzyme in assay buffer (50 mM sodium acetate, pH 5.5, 100 mM NaCl, and 0.1% BSA) for 30 minutes at room temperature. Peptide substrate was added to […] in a total volume of 20 μL containing 20 pM HIV-1 protease (final) after which the reaction was incubated for 1 hour at 30° C. The reaction was quenched by the addition of formic acid and HIV protease inhibitor indinavir to 0.012% and 150 nM final concentrations, respectively. Product formation was determined after separation of product and substrate on a ZORBAX Eclipse XDB-C18 column (Aligent Technologies, Santa Clara, Calif., USA) connected to an API 4000™ mass spectrometer (AB Sciex, Pte. Ltd., Concord Ontario, Canada) with multiple reaction monitoring (transitions were 644.5/428.9 and 615.4/422.2 (M1/M3) for product and indinavir respectively). The extent of inhibition of the reaction was determined from the peak area of the products. Analysis of the products, independently synthesized, provided quantitation standards and confirmation of the product composition.

Going from `COC(=O)N[C@@H](Cc1ccccc1)C(=O)NCCC[C@@H](CC1CC1)N1C(=N)N[C@](CC(C)C)(c2ccccc2)C1=O` [Example 53, N-{(4S)-5-cyclopropyl-4-[(4R)-2-imino-4-(2-methylpropyl)-5-oxo-4-phenylimidazolidin-1-yl]pentyl}-N-alpha-(methoxycarbonyl)-L-phenylalaninamide] to `COC(=O)N[C@@H](Cc1ccccc1)C(=O)NCCC[C@@H](CCC1CC1)N1C(=N)N[C@](CC(C)C)(c2ccccc2)C1=O` [Example 56, N-{(4R)-6-cyclopropyl-4-[(4R)-2-imino-4-(2-methylpropyl)-5-oxo-4-phenylimidazolidin-1-yl]hexyl}-N-alpha-(methoxycarbonyl)-L-phenylalaninamide], the IC50 falls from 249 nM to 100 nM (2.5-fold).

Going from `COC(=O)N[C@@H](Cc1ccccc1)C(=O)NCCC[C@@H](C)N1C(=N)N[C@](CC(C)C)(c2ccccc2)C1=O` [Example 54, N-{(4R)-4-[(4R)-2-imino-4-(2-methylpropyl)-5-oxo-4-phenylimidazolidin-1-yl]pentyl}-N-alpha-(methoxycarbonyl)-L-phenylalaninamide] to `CC[C@H](CCCNC(=O)[C@H](Cc1ccccc1)NC(=O)OC)N1C(=N)N[C@](CC(C)C)(c2ccccc2)C1=O` [Example 55, N-{(4R)-4-[(4R)-2-imino-4-(2-methylpropyl)-5-oxo-4-phenylimidazolidin-1-yl]hexyl}-N-alpha-(methoxycarbonyl)-L-phenylalaninamide], the IC50 rises from 190 nM to 532 nM (2.8-fold). The first is the more potent here.
